Source: patent US12351652B2, “Hemagglutinin-binding peptide” (priority 2019, dated 2025)

Test system: influenza virus A/Puerto Rico/8/34 (H1N1)
Parameters: species or system BALB/cA Jcl [SPF] mice
Settings: mouse, in vivo, iv

## CCC(CC)[C@H](NC(C)=O)[C@@H]1[C@H](O)[C@@H](C(=O)O)C[C@H]1N=C(N)N [peramivir, reference compound]
  survival rate: 20%
